Data published in patent US20250367302A1, “SMALL MOLECULE DRUG-OLIGONUCLEOTIDE CONJUGATE AND USE THEREOF” (SHANGHAI JIAO TONG UNIVERSITY, priority 2022, published 2025).
d = 2'-deoxy (DNA); r = 2'-OH (RNA)

Legend:
NFKBIZ mRNA = NFKBIZ mRNA expression by RT-qPCR in LPS-stimulated HCECs; assay type: cell-based, human; details: LPS-stimulated (100 ng/mL) HCECs, 10 μM ASO or siRNA, without transfection reagent, 6 h + 48 h
Experimental: HCECs were inoculated in a 6-well plate at a density of 1×10^5 cells/well and cultured until adherence. The cells were then stimulated with 100 ng/mL lipopolysaccharide (LPS) overnight. After removing the supernatant, 1 mL of Opti-MEM medium containing ASONFKBIZ-h, ASONFKBIZ-h+Lipofectamine2000 (Lipo2000), and CsA-ASONFKBIZ-h (all containing 10 µM ASO) were added, respectively. Cells without any treatment were used as a blank reference (Mock). After incubation at 37° C. for 6 h, the cells were transferred into DMEM medium and incubated for another 48 h. The cells were collected and RNA was extracted for RT-qPCR to analyze the expression level of the NFKBIZ mRNA in HCECs, and experimental results were shown in FIG. 9. The expression level of NFKBIZ mRNA in HCECs after LPS stimulation was about 1.3 times that of normal cells. […] After adding CsA-ASONFKBIZ-h for co-incubation, the expression of NFKBIZ mRNA was reduced to about 0.8 times that of normal cells.
(§1) HCECs were inoculated in a 6-well plate at a density of 1×10^5 cells/well and cultured until adherence. The cells were then stimulated with 100 ng/mL LPS overnight. After removing the supernatant, 1 mL of Opti-MEM medium containing ASONFKBIZ-h+Lipo2000 complex and 2CsA-ASONFKBIZ-h nanomicelles (all containing 10 µM ASO) were added, respectively. After incubation at 37° C. for 6 h, the cells were transferred into DMEM medium and incubated for another 48 h. The cells were collected and RNA was extracted for RT-qPCR to analyze the expression level of the NFKBIZ mRNA in HCECs, and experimental results were shown in FIG. 12.
as §1, with “ng/ml” for “ng/mL”, “3CsA-ASONFKBIZ-h” for “2CsA-ASONFKBIZ-h”, “15.” for “12.”
HCECs were inoculated in a 6-well plate at a density of 1×10^5 cells/well and cultured until adherence. The cells were then stimulated with 100 ng/mL LPS overnight. 1 mL of Opti-MEM medium containing ASONFKBIZ-h+Lipo2000 complex and CsA3-ASONFKBIZ-h nanomicelles (all containing 10 µM ASO) were added, respectively. After incubation at […]. 37° C. for 6 h, the cells were transferred into DMEM medium and incubated for another 48 h. After collected and RNA was extracted for RT-qPCR to evaluate the expression level of NFKBIZ mRNA in HCECs, and the experimental results were shown in FIG. 23.
HCECs were inoculated in a 6-well plate at a density of 1×10^5 cells/well and cultured overnight until adherence. The cells were then stimulated with 100 ng/ml LPS for 12 h. After removing the supernatant, 1 mL of Opti-MEM medium containing siRNANFKBIZ-h+Lipo2000 complex and nCsA-siRNANFKBIZ-h (n=1, 2, 3) conjugates and nanomicelles (all containing 10 μM siRNA) were added, respectively. After incubation at 37° C. for 6 h, the cells were transferred into DMEM medium and incubated for another 48 h. The cells were collected and RNA was extracted for RT-qPCR to evaluate the expression of NFKBIZ mRNA in HCECs, and experimental results were shown in FIG. 27. […]

[1] = system: Human corneal epithelial cells (HCECs); assay: Cellular uptake of FITC-labelled conjugate by flow cytometry; assay type: cell-based
Experimental: Human corneal epithelial cells (HCECs) were inoculated at a density of 5×10^4 cells/well in a 12-well plate and cultured overnight. After the medium was removed, 0.5 mL of fresh medium containing 10 μM or 100 μM CsA-ASONFKBIZ-h conjugate with FITC fluorescence was added and incubated with HCECs for 6 h, while a well plate without conjugate was used as a blank control (Mock group). After the incubation, the supernatant medium was discarded, and then the cells were digested with trypsin and washed 2 to 3 times with phosphate-buffered saline (PBS, pH=7.2). After the cells were collected, flow cytometric analysis was conducted using a flow cytometer, and experimental results were shown in FIGS. 8A-8B.

Substance | expression of NFKBIZ mRNA relative to normal cells (NFKBIZ mRNA) | cellular uptake ([1]; 10 μM or 100 μM FITC-labelled conjugate, 6 h) | average fluorescence intensity of cells, 100 UM versus 10 μM conjugate ([1]; FITC-labelled conjugate, 6 h incubation, flow cytometry)
3CsA-ASONFKBIZ-h: three CsA molecules coupled to 3DBCO ASO targeting human NFKBIZ (SEQ ID 5), self-assembled (ATCAGACAACGAATCGGGCNTNTT; three CsA via DBCO click; modified_base 20 OTHER; n is t base modified with DBCO moiety; modified_base 22 OTHER) | about 0.75 times that of normal cells | – | –
CsA-ASONFKBIZ-h: single cyclosporin A (CsA-N3) click-coupled to 3′-DBCO ASO targeting human NFKBIZ gene (SEQ ID NO: 1) (ATCAGACAACGAATCGGGC; 3'-DBCO ASO click-conjugated to one cyclosporin A, sugar and linkages not given here, further chemistry not given here) | about 0.8 times that of normal cells | effectively taken up by cells | approximately 10 times
CsA-siRNANFKBIZ-h: one CsA coupled to sense strand of siRNA targeting human NFKBIZ (SEQ ID NO: 9/10) (sense GCCCGAUUCGUUGUCUGAUTT; antisense AUCAGACAACGAAUCGGGCTT; sugars from the 5' end r19 d2, backbone not given here; DBCO clicked to azide-modified cyclosporin A, further chemistry not fully specified) | level before LPS stimulation | – | –
